Measurements reported in patent US9127015B2, “Tricyclopyrazole derivatives” (NERVIANO MEDICAL SCIENCES S.R.L., priority 2009, dated 2015).

Legend:
Format in all cases: biochemical
CDK2/CYCA = target: T1, CDK2/CYCA (Homo sapiens, UniProt P24941); assay: Inhibition assay of Cdk2/Cyclin A activity (33P-ATP, histone H1 substrate); conditions: Enzyme CDK2/CYCA
T1 construct: host or cells: baculovirus expression system (co-expression)
Protocol: (§1) The inhibitory activity of putative kinase inhibitors and the potency of selected compounds were also determined using a trans-phosphorylation assay.
(§2) Specific peptide or protein substrates are trans-phosphorylated by their specific ser-thr or tyr kinase in the presence of ATP traced with ^33P-γ-ATP, and in the presence of their own optimal buffer and cofactors. At the end of the phosphorylation reaction, more than 98% unlabeled ATP and radioactive ATP is captured by an excess of the ion exchange dowex resin; the resin then settles down to the bottom of the reaction plate by gravity. Supernatant is subsequently withdrawn and transferred into a counting plate, then evaluated by β-counting.
(§3) As example herein are reported the assay conditions used for testing the compounds of formula (I) against cdc7 and cdk2 kinase.
To each well of the plate were added: • 10 μl test compound (10 increasing concentrations in the nM to uM range to generate a dose-response curve). The solvent for test compounds contained 3% DMSO. (final concentration 1%) • 10 μl substrate MCM2 ([…] final concentration), a mixture of cold ATP ([…] final concentration) and radioactive ATP (1/5000 molar ratio with cold ATP). • 10 μl enzyme (Cdc7/Dbf4, 2 nM final concentration) that started the reaction. […]

CDC7/DBF4 = CDC7/DBF4 (Homo sapiens, UniProt O00311); assay: Inhibition assay of Cdc7 activity (Dowex resin capture, 33P-ATP, MCM2 substrate); conditions: Enzyme CDC7/DBF4
CDC7/DBF4, sequence (O00311 whole entry): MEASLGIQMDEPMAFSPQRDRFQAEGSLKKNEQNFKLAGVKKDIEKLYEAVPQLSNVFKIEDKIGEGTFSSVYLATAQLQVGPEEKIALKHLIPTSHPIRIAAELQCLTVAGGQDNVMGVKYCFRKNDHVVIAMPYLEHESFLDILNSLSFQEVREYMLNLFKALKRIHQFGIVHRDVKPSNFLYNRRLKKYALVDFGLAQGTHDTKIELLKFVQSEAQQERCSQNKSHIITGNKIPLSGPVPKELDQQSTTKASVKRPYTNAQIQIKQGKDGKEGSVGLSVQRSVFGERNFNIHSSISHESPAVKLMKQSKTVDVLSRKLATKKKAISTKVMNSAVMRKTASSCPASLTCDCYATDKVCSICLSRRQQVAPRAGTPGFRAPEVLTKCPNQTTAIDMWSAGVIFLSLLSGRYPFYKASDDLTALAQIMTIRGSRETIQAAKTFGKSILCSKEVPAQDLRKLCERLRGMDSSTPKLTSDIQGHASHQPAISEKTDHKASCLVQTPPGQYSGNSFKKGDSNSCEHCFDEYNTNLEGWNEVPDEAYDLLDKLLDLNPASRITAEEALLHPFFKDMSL
CDC7/DBF4, sequence (Q9UBU7 whole entry partner): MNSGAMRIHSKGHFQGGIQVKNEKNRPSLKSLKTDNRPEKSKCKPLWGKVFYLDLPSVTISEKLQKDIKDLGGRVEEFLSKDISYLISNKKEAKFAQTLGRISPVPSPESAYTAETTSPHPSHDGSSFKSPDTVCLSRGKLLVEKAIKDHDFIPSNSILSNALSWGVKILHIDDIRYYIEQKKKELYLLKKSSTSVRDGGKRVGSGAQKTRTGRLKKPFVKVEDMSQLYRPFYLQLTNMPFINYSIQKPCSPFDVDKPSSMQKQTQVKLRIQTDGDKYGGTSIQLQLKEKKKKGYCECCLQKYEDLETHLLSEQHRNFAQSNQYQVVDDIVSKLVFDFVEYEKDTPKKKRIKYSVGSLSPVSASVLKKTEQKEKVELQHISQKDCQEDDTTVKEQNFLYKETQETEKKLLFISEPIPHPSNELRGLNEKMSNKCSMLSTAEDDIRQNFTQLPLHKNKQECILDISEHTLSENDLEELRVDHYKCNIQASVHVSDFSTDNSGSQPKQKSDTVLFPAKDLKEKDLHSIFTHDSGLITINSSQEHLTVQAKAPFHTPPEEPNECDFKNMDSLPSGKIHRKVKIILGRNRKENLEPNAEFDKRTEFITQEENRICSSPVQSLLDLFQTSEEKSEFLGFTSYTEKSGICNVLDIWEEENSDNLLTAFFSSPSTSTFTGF
Protocol: as §1, §2, §3
Inhibition Assay of Cdc7 Activity
The inhibiting activity of putative Cdc7 inhibitors and the potency of selected compounds is determined through a method of assay based on the use of Dowex resin capture technology.
The assay consists of the transfer of radioactivity labeled phosphate moiety by the kinase to an acceptor substrate.
The resulting ^33P-labeled product is separated from unreacted tracer, transferred into a scintillation cocktail and light emitted is measured in a scintillation counter. […]

KIT = KIT (Homo sapiens, UniProt P10721); assay: Kinase inhibition assay, IC50 (Table A); conditions: Enzyme KIT
KIT, sequence (P10721 26-976): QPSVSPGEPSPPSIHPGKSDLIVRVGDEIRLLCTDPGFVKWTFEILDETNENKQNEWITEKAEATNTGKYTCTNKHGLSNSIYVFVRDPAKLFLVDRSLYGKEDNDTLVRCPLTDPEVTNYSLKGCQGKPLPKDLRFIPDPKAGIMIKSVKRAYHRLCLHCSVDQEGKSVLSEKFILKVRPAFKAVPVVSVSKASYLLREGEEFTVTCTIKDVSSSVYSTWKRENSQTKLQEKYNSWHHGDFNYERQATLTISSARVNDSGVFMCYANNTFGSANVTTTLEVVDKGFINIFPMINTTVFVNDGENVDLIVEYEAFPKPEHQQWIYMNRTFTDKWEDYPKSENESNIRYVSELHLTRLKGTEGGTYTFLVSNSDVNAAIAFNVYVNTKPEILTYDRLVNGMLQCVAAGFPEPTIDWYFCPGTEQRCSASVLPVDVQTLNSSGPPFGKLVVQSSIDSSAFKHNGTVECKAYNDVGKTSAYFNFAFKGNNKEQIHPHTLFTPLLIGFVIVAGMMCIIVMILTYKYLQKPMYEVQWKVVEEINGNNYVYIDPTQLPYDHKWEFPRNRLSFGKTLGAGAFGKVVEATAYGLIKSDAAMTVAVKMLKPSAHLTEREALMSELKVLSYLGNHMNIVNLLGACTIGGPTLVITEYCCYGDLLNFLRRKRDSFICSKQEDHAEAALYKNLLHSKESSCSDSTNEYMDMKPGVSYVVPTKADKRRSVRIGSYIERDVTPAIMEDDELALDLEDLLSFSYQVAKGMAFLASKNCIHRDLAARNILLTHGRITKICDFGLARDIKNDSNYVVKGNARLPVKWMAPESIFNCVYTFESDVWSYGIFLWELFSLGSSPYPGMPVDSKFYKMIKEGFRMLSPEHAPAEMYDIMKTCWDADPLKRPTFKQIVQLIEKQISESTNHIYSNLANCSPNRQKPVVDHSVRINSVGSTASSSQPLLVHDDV
Protocol: (§4) The inhibiting activity of putative kinase inhibitors and the potency of selected compounds is determined through a method of assay based on the use of the Kinase-Glo® Luminescent Kinase Assay (commercially available from Promega corporation and described in Koresawa, M. and Okabe, T. (2004) High-throughput screening with quantitation of ATP consumption: A universal non-radioisotope, homogeneous assay for protein kinase. Assay Drug Dev. Technol. 2, 153-60).
as §1, §2
(§5) Reaction conditions are target (enzyme) dependent and thus undergo individual adaptations. Also the buffer conditions may vary depending on the kinase of interest. The assay can be used with virtually any kinase and substrate combination and is suitable for all type of protein kinases, such as ABL, ACK1, AKT1, ALK, AUR1, AUR2, BRK, BUB1, CDC7/DBF4, CDK21CYCA, CHK1, CK2, EEF2K, EGFR1, EphA2, EphB4, ERK2, FAK, FGFR1, FLT3, GSK3beta, Haspin, IGFR1, IKK2, IR, JAK1, JAK2, JAK3, KIT, LCK, LYN, MAPKAPK2, MELK, MET, MNK2, MPSI, MST4, NEK6, NIM1, P38alpha, PAK-4, PDGFR, PDK1, PERK, PIM1, PIM2, PKAalpha, PKCbeta, PLK1, RET, ROS1, SULU1, Syk, TLK2, TRKA, TYK, VEGFR2, VEGFR3, ZAP70.

MELK = MELK (Homo sapiens, UniProt Q14680); assay: Kinase inhibition assay, IC50 (Table A); conditions: Enzyme MELK
MELK, sequence (Q14680 whole entry): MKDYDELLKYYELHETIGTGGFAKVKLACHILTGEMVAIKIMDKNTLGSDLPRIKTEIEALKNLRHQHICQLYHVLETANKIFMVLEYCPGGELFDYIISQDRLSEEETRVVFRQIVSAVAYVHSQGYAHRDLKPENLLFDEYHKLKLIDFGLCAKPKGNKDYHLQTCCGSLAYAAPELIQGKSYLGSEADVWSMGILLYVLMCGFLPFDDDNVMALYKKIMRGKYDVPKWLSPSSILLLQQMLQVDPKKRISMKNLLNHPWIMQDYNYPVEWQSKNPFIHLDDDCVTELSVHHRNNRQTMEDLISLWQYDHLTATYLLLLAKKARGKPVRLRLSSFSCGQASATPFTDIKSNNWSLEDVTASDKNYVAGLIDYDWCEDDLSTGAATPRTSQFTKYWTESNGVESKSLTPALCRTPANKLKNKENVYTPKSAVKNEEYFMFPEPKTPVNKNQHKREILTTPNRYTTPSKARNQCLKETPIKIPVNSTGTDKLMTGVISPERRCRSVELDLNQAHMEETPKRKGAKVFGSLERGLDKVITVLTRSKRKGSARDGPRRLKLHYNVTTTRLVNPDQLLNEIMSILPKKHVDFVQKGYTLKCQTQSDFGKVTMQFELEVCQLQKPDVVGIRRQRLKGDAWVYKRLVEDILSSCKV
Protocol: as §4, §1, §2, §5

GSK3beta = GSK3beta (Homo sapiens, UniProt P49841); assay: Kinase inhibition assay, IC50 (Table A); conditions: Enzyme GSK3beta
GSK3beta, sequence (P49841 whole entry): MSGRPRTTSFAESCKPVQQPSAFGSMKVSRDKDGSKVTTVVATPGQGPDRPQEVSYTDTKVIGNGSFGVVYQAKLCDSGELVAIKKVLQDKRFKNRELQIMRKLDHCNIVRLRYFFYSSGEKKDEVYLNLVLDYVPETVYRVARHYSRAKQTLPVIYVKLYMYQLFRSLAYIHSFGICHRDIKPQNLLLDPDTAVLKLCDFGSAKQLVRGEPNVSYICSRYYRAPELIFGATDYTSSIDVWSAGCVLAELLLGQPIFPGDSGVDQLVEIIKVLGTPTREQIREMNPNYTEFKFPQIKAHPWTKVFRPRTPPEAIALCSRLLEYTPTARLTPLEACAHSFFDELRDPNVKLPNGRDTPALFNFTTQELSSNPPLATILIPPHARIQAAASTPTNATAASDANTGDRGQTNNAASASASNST
Protocol: as §4, §1, §2, §5

CNC(=O)c1cc2n(c1)CCc1c(NC(=O)c3ccc(N4CCN(C)CC4)cc3)n[nH]c1-2 [Example A16-M1-B18]
IC50 (CDK2/CYCA): 1900 nM | IC50 (CDC7/DBF4): 2990 nM | IC50 (KIT): 2610 nM | IC50 (MELK): 6330 nM | IC50 (GSK3beta): 1920 nM
